From ChEMBL document CHEMBL4732086, “Targeting nuclear protein TDP-43 by cell division cycle kinase 7 inhibitors: A new therapeutic approach for amyotrophic lateral sclerosis” (Eur J Med Chem, 2021) come the findings set out here.

The target of data set [1] is Receptor-type tyrosine-protein kinase FLT3 (Homo sapiens) (UniProt P36888). Nature of the data set: Inhibition of recombinant human His-tagged Flt3 expressed in baculovirus expression system using Tyr 02 peptide as substrate at 10 uM incubated for 60 mins in presence of ATP by Z'-LYTE assay.
Chain of Receptor-type tyrosine-protein kinase FLT3 (Homo sapiens) (P36888 whole entry): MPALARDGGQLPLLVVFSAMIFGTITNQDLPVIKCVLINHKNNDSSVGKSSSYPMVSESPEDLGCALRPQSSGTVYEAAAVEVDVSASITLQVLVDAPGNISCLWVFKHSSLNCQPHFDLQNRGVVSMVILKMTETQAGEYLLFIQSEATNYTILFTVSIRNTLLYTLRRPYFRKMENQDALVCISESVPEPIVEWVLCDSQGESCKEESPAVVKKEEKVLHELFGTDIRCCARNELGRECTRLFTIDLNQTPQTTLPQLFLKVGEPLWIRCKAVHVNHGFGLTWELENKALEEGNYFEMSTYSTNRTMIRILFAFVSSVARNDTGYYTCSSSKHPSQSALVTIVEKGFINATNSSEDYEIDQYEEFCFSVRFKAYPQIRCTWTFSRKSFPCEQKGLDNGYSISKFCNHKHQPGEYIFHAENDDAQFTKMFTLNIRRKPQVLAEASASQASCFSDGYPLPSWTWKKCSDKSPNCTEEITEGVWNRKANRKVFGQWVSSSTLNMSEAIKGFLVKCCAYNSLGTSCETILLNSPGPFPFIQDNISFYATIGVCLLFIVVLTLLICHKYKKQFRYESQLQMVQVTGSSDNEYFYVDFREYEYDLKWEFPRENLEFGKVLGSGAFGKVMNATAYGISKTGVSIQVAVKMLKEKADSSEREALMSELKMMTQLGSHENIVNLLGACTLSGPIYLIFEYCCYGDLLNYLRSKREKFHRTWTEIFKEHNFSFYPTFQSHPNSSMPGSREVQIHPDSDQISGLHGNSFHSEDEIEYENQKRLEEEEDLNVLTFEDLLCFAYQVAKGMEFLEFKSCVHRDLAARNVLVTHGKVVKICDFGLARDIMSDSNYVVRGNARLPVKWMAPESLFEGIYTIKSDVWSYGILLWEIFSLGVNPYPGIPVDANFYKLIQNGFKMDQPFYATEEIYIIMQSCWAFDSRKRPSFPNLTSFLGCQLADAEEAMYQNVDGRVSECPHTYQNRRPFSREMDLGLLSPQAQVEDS
Data set [2] concerns the target T1, Interleukin-1 receptor-associated kinase 4 (Homo sapiens) (UniProt Q9NWZ3).
T1 sequence (whole entry): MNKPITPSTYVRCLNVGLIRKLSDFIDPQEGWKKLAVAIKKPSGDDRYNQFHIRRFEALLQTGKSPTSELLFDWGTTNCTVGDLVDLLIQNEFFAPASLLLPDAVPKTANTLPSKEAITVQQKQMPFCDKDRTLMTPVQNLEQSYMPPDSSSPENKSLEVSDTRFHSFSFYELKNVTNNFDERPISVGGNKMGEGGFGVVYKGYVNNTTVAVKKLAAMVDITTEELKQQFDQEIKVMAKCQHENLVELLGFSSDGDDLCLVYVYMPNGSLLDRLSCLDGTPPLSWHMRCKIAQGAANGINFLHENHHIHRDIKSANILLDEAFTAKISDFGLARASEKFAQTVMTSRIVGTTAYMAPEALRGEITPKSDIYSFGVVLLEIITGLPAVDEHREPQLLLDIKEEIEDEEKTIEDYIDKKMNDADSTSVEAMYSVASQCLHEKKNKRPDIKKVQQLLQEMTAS
Nature of the data set: Inhibition of recombinant human full length His-tagged IRAK4 expressed in baculovirus expression system using serine/threonine-07 peptide as substrate at 10 uM incubated for 60 mins in presence of ATP by Z'-LYTE assay.

Data set [3] concerns Caenorhabditis elegans. The experiment in a line: Inhibition of CDC7 in transgenic Caenorhabditis elegans CK423 Bus-8(e2698) expressing human TDP-43 assessed as inhibition of TDP-43 phosphorylation at 10 to 75 uM measured after 6 days by Western blot assay. As to conditions: dose 10-75 µM, time 6.0 day. For orientation: A western blot detects proteins with antibodies after separation by electrophoresis.

Data set [4] deals with Mus musculus. Nature of the data set: Neuroprotective activity in Prp-hTDP43 (A315T) transgenic amyotrophic lateral sclerosis mouse model assessed as decrease in clasping behavioural at 5 mg/kg, ip qd measured on week 5 by rotarod test. It counts as functional, organism-based. As to conditions: time 5.0 weeks. (In general: Falling from the rotarod earlier than controls is read as motor impairment.)

For data set [5], the system named is Mus musculus. The experiment in a line: Neuroprotective activity in Prp-hTDP43 (A315T) transgenic amyotrophic lateral sclerosis mouse model assessed as decrease in clasping behavioural at 5 mg/kg, ip qd measured on week 3 by rotarod test. Type of data set: functional, organism-based. As to conditions: time 3.0 weeks.
Data set [6] deals with Mus musculus. The experiment in a line: Neuroprotective activity in Prp-hTDP43 (A315T) mouse assessed by decrease in TDP-43 phosphorylation in spinal cord tissue at 5 mg/kg, ip qd for 30 days by Western blot assay. The settings on record: time 30.0 day. Type of data set: functional, organism-based.
Data set [7] in a line: Toxicity in Prp-hTDP43 (A315T) mouse at 5 mg/kg, ip qd for 30 days. The settings on record: in vivo, 720 h, time 30 day. It counts as organism-based.
In data set [8] the test system is Caenorhabditis elegans. Nature of the data set: Inhibition of CDC7 in transgenic Caenorhabditis elegans CK423 Bus-8(e2698) expressing human TDP-43 assessed as inhibition of TDP-43 phosphorylation at 75 uM measured after 6 days by Western blot assay. As to conditions: time 6.0 day.
The test system of another data set is SH-SY5Y. Nature of the data set: Neuroprotective activity in human SH-SY5Y cells assessed as decrease in cytoplasmic TDP-43 preincubated for 1 hr followed by incubation with ethacrynic acid for 24 hrs measured at 10 uM by immunofluorescence assay. It counts as functional, cell-based.

Activity calls are given as the source filed them. The calls are words filed in the database; no cut-off is given here.

As for `Brc1ccccc1CSc1ncnc2[nH]cnc12`, the inhibition result (in [1]; in data set [2]; with Caenorhabditis elegans [3]) was “inactive” in each case. The result with Mus musculus [4], in the data set with Mus musculus [5] and in the data set with Mus musculus [6] was Active. The Activity result in data set [7] is given as “Non-Toxic”.
In the case of `c1ccc(CSc2ncnc3[nH]cnc23)cc1`, the inhibition entry in data set [1] and in [2] was “inactive” in each case. The inhibition result in the data set with Caenorhabditis elegans [8] was “Active”.
For the compound `Clc1cccc(CSc2ncnc3[nH]cnc23)c1`, the inhibition result (in data set [1]; in data set [2]; with Caenorhabditis elegans [3]) was “inactive” each time. Also, the outcome with SH-SY5Y was Active.
